1 molecule from US9943504B2, “Arginine methyltransferase inhibitors and uses thereof” (Epizyme, Inc., priority 2013, dated 2018) can be followed below.

In this experiment the target is T1, human PRMT1 (Homo sapiens, UniProt Q99873).
T1 construct: GST-tagged PRMT1; made in house; host or cells: High Five insect cells (baculovirus)
The experiment in a line: PRMT1 Biochemical Assay. As to conditions: biochemical evaluation, peptide substrate. The source says: S-adenosylmethionine (SAM), S-adenosylhomocysteine (SAH), bicine, Tween20, dimethylsulfoxide (DMSO), bovine skin gelatin (BSG), and Tris(2-carboxyethyl)phosphine hydrochloride solution (TCEP) were purchased from Sigma-Aldrich at the highest level of purity possible. ^3H-SAM was purchase from American Radiolabeled Chemicals with a specific activity of 80 Ci/mmol. 384-well streptavidin Flashplates were purchased from PerkinElmer.
Peptide representative of human histone H4 residues 36-50 was synthesized with an N-terminal linker-affinity tag motif and a C-terminal amide cap by 21st Century Biochemicals. The peptide was purified by high-performance liquid chromatography (HPLC) to greater than 95% purity and confirmed by liquid chromatography mass spectrometry (LC-MS). The sequence was Biot-Ahx-[…]-amide (SEQ ID NO.: 1). […]
The assays were all performed in a buffer consisting of 20 mM Bicine (pH=7.6), 1 mM TCEP, 0.005% BSG, and 0.002% Tween 20, prepared on the day of use. […] The plates were then read in a PerkinElmer TopCount plate reader to measure the quantity of ^3H-labeled peptide bound to the Flashplate surface, measured as disintegrations per minute (dpm) or alternatively, referred to as counts per minute (cpm). […]

Bounds are passed on as bounds.

T1 sequence (Q99873 with tags, fused parts or gaps): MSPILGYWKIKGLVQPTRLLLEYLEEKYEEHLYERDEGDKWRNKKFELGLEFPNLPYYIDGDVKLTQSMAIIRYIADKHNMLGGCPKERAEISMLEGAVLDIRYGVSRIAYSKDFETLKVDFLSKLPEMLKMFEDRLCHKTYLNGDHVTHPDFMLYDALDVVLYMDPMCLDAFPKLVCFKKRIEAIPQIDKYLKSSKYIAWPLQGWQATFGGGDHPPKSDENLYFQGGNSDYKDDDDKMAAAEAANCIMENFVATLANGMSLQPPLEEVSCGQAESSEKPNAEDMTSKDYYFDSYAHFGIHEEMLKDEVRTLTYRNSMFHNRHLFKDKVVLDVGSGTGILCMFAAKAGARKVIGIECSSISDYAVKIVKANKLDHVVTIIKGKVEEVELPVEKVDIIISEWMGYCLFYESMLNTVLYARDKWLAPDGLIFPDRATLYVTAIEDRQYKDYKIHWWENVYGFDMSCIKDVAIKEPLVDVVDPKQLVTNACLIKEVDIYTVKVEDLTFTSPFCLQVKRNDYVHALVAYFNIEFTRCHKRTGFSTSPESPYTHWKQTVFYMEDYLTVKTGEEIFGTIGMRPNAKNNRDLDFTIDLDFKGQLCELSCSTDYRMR

By IC50 is commonly meant the concentration needed to halve the response being measured. A low value points to greater potency in that assay. On to `CN(CCN)Cc1n[nH]c2cccc(OCc3ccccc3)c12` [Compound 1], for which the half-maximal inhibitory concentration (IC50) was at most 100 nM.
